According to ChEMBL document CHEMBL1129206, “Probing the specificity of the S1 binding site of M222 mutants of subtilisin B. lentus with boronic acid inhibitors” (Bioorg Med Chem Lett, 1996):
pKi: −log10 of the molar value.

Columns and labels:
Set-up in all cases: species or system Lederbergia lenta
Subtilisin BL [1] = biological target: Subtilisin BL (Bacillus lentus, UniProt P29599, M222C)
Subtilisin BL [2] = biological target: Subtilisin BL (Bacillus lentus, UniProt P29599, M222S)
Subtilisin BL [3] = biological target: T1, Subtilisin BL (Bacillus lentus, UniProt P29599); assay: Competitive inhibition of Subtilisin BL wild type enzyme from Bacillus lentus
T1 sequence (P29599 whole entry): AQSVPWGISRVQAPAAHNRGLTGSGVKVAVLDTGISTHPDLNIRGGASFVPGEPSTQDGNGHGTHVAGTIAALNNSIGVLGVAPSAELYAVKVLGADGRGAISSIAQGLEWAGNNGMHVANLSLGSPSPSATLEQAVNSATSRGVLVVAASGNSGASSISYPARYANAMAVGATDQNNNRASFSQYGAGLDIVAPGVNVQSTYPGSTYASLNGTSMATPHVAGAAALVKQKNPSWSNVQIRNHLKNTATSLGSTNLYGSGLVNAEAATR

SMILES | pKi (Subtilisin BL [1]) | pKi (Subtilisin BL [2]) | pKi (Subtilisin BL [3])
OB(O)c1ccccc1 [PHENYLBORONIC ACID] | 3.81 | 4.02 | 3.85
OB(O)CCc1ccc2ccccc2c1 | < 3.00 | < 3.00 | 2.80
OB(O)CCc1ccc(Cl)cc1 | 3.63 | 3.96 | 3.49
Nc1cccc(B(O)O)c1 | 3.69 | 4.14 | 3.82
OB(O)c1ccc(Cl)cc1Cl | 4.74 | 5.10 | 5.04
COc1ccc(B(O)O)cc1 | 3.12 | 3.51 | 3.24
OB(O)c1cccc(-c2ccccc2)c1 | 4.51 | 4.16 | 3.49
OB(O)c1ccc(Br)cc1 | 4.64 | 5.00 | 4.64
COc1ccc(CCB(O)O)cc1 | 3.50 | 3.66 | 3.01
